Results published in patent US5290757A (priority 1993, dated 1994).
Where a SMILES comes first, the peptide text is derived from it.

What was measured:
[1] = tested on: perennial ryegrass (Lolium perenne) seeds; test: Petri dish root-inhibition bioassay on perennial ryegrass seeds; assay type: in vivo; conditions: for Root Length of Perennial Ryegrass Seedlings Expressed as a Percentage of the Control: average of 2 trials; for relative effectiveness among the five dipeptides: perennial ryegrass root inhibition
Description: Bioactive fractions of the eluate were identified with bioassays, then pooled and subjected to further purification steps. […] The dishes were sealed with parafilm and placed in a controlled environmental chamber. The light intensity in the growth chamber was 70 μmol m^-2 s^-1 at 25° C./15° C. day/night temperature with a 16 hr photoperiod. One ml of a given eluate fraction was applied to the filter paper in each petri dish. The study was conducted with seven replications for each eluate fraction. […] Louis, Mo. The fifth, Gln-Gln, was obtained from Bachem Bioscience Inc. The activity of each synthetically derived peptide was tested in seven replications on perennial ryegrass using the same bioassay technique described in Example 4 in the presence of increasing amounts of the dipeptides mixed with distilled water (Table V).

[2] = tested on: creeping bentgrass (Agrostis palustris); test: Soil pot study of dipeptide bioactivity on creeping bentgrass; assay type: in vivo; conditions: for Mean root length of creeping bentgrass seedlings / Percentage of creeping bentgrass plants surviving: 21 days after treatment
Description: In a study designed to verify the bioactivity of the dipeptides on soil, Ala-Gln and Gly-Ala were applied to the surface of 56.3 cm^2 plastic pots filled with a Nicollet (fine, loamy, […], Aquic Hapludol soil. The two dipeptides were applied at 0 to 3552 mg/dm^2. […] The test specie was creeping bentgrass (Agrostis palustris).

[3] = 8 μg/cm^2 dipeptide on filter paper
[4] = 13 μg/cm^2 dipeptide on filter paper
[5] = 21 μg/cm^2 dipeptide on filter paper
[6] = 26 μg/cm^2 dipeptide on filter paper
[7] = 31 μg/cm^2 dipeptide on filter paper
[8] = 39 μg/cm^2 dipeptide on filter paper
[9] = 52 μg/cm^2 dipeptide on filter paper
[10] = concentrations of 1.8 g/dm^2 and above
[11] = much lower concentrations than 1.8 g/dm^2

| Structure (SMILES) | Root Length of Perennial Ryegrass Seedlings Expressed as a Percentage of the Control [1, 3] [%] | Root Length of Perennial Ryegrass Seedlings Expressed as a Percentage of the Control [1, 4] [%] | Root Length of Perennial Ryegrass Seedlings Expressed as a Percentage of the Control [1, 5] [%] | Root Length of Perennial Ryegrass Seedlings Expressed as a Percentage of the Control [1, 6] [%] | Root Length of Perennial Ryegrass Seedlings Expressed as a Percentage of the Control [1, 7] [%] | Root Length of Perennial Ryegrass Seedlings Expressed as a Percentage of the Control [1, 8] [%] | Root Length of Perennial Ryegrass Seedlings Expressed as a Percentage of the Control [1, 9] [%] | relative effectiveness among the five dipeptides [1] | Mean root length of creeping bentgrass seedlings ([2]; 89 mg/dm^2 on soil surface) [mm] | Percentage of creeping bentgrass plants surviving ([2]; 89 mg/dm^2 on soil surface) [%] | Mean root length of creeping bentgrass seedlings ([2]; 178 mg/dm^2 on soil surface) [mm] | Percentage of creeping bentgrass plants surviving ([2]; 178 mg/dm^2 on soil surface) [%] | Mean root length of creeping bentgrass seedlings ([2]; 355 mg/dm^2 on soil surface) [mm] | Percentage of creeping bentgrass plants surviving ([2]; 355 mg/dm^2 on soil surface) [%] | Mean root length of creeping bentgrass seedlings ([2]; 710 mg/dm^2 on soil surface) [mm] | Percentage of creeping bentgrass plants surviving ([2]; 710 mg/dm^2 on soil surface) [%] | Mean root length of creeping bentgrass seedlings ([2]; 1066 mg/dm^2 on soil surface) [mm] | Percentage of creeping bentgrass plants surviving ([2]; 1066 mg/dm^2 on soil surface) [%] | Mean root length of creeping bentgrass seedlings ([2]; 1776 mg/dm^2 on soil surface) [mm] | Percentage of creeping bentgrass plants surviving ([2]; 1776 mg/dm^2 on soil surface) [%] | further results |
| --- | --- | --- | --- | --- | --- | --- | --- | --- | --- | --- | --- | --- | --- | --- | --- | --- | --- | --- | --- | --- | --- |
| C[C@H](N)C(=O)N[C@@H](C)C(=O)O [Ala-Ala, alaninyl-alanine] (H-Ala-Ala-OH) | 74 | 44 | 27 | 5 | 1 | 2 | 0 | most effective |  |  |  |  |  |  |  |  |  |  |  |  |  |
| C[C@H](N)C(=O)N[C@@H](CC(N)=O)C(=O)O [Ala-Asn, alaninylasparagine] (H-Ala-Asn-OH) | 101 | 85 | 63 | 29 | 2 | 0 | 0 | most effective |  |  |  |  |  |  |  |  |  |  |  |  |  |
| C[C@H](N)C(=O)N[C@@H](CCC(N)=O)C(=O)O [Ala-Gln, alaninyl-glutamine] (H-Ala-Gln-OH) | 83 | 70 | 49 | 41 | 4 | 0 | 0 |  | 20 | 100 | 15 | 40 | 2 | 30 | 0 | 25 | 0 | 5 | 0 | 0 | Mean root length of creeping bentgrass seedlings ([2]; 3552 mg/dm^2 on soil surface): 0 mm; Percentage of creeping bentgrass plants surviving ([2]; 3552 mg/dm^2 on soil surface): 0%; inhibition of emergence and establishment of creeping bentgrass [2, 10]: completely inhibit; inhibition of emergence and establishment of creeping bentgrass [2, 11]: partially effective |
| NC(=O)CC[C@H](NC(=O)[C@@H](N)CCC(N)=O)C(=O)O [Gln-Gln, glutaminyl-glutamine] (H-Gln-Gln-OH) | 107 | 89 | 82 | 63 | 12 | 3 | 0 |  |  |  |  |  |  |  |  |  |  |  |  |  |  |
| C[C@H](NC(=O)CN)C(=O)O [Gly-Ala, glycinyl-alanine] (H-Gly-Ala-OH) | 95 | 68 | 29 | 16 | 9 | 2 | 0 |  | 20 | 105 | 15 | 40 | 5 | 30 | 2 | 25 | 2 | 25 | 0 | 0 | Mean root length of creeping bentgrass seedlings ([2]; 3552 mg/dm^2 on soil surface): 0 mm; Percentage of creeping bentgrass plants surviving ([2]; 3552 mg/dm^2 on soil surface): 0%; inhibition of emergence and establishment of creeping bentgrass [2, 10]: completely inhibit; inhibition of emergence and establishment of creeping bentgrass [2, 11]: partially effective |
